Reference: patent publication US6469005B1, “Propargylether derivatives” (priority 1999, dated 2002)

Experiments:
Plasmopara viticola = assay: D-1: Action against Plasmopara viticola on vines (residual-protective and residual-curative action); format: in vivo; conditions: vine seedlings, spray mixture 0.02% active ingredient; protective (infected after 24 hours) or curative (sprayed 24 hours after infection); evaluated after 6 days
Protocol: D-1: Action Against Plasmopara viticola on Vines a) Residual-Protective Action
Vine seedlings are sprayed at the 4- to 5-leaf stage with a spray mixture (0.02% active ingredient) prepared from a wettable powder formulation of the test compound. After 24 hours, the treated plants are infected with a sporangia suspension of the fungus. Fungus infestation is evaluated after incubation for 6 days at 95-100% relative humidity and +20° C. […]
b) Residual-curative Action
Vine seedlings are infected at the 4- to 5-leaf stage with a sporangia suspension of the fungus. After incubation for 24 hours in a humidity chamber at 95-100% relative humidity and +20° C., the infected plants are dried and sprayed with a spray mixture (0.02% active ingredient) prepared from a wettable powder formulation of the test compound. After the spray coating has dried, the treated plants are placed in the humidity chamber again.
Fungus infestation is evaluated 6 days after infection.

Phytophthora [1] = assay: D-2: Action against Phytophthora on tomato plants (residual-protective and systemic action); format: in vivo; conditions: 0.02% active ingredient, sprayed (infected after 48 hours, evaluated after 5 days) or watered, systemic (infected after 96 hours, evaluated after 4 days)
Protocol: D-2: Action Against Phytophthora on Tomato Plants
(§1) a) Residual-protective Action
(§2) After a cultivation period of 3 weeks, tomato plants are sprayed with a spray mixture (0.02% active ingredient) prepared from a wettable powder formulation of the test compound. After 48 hours, the treated plants are infected with a sporangia suspension of the fungus. Fungus infestation is evaluated after incubation of the infected plants for 5 days at 90-100% relative humidity and +20° C.
as §2, with “watered” for “sprayed”, “ingredient based on the volume of the soil)” for “ingredient)”, “compound. […]” for “compound.”, “96” for “48”, “4” for “5”

Phytophthora [2] = assay: D-3: Action against Phytophthora on potato plants (residual-protective and systemic action); format: in vivo; conditions: potato plants (Bintje variety), 0.02% active ingredient; sprayed or watered (systemic), infected after 48 hours, evaluated after 4 days
Protocol: ID-3: Action Against Phytophthora on Potato Plants
as §1
(§3) 2-3 week old potato plants (Bintje variety) are sprayed with a spray mixture (0.02% active ingredient) prepared from a wettable powder formulation of the test compound. After 48 hours, the treated plants are infected with a sporangia suspension of the fungus. Fungus infestation is evaluated after incubation of the infected plants for 4 days at 90-100% relative humidity and +20° C.
as §3, with “watered” for “sprayed”, “ingredient based on the volume of the soil)” for “ingredient)”, “compound. […]” for “compound.”, “C. Fungal infestation is effectively controlled with compounds of Tables 1 to 47.” for “C.”

Structure (SMILES)	melting point [°C]	fungal infestation (Plasmopara viticola on vines) (Plasmopara viticola)	fungal infestation (Phytophthora on tomato plants) (Phytophthora [1])	fungal infestation (Phytophthora on potato plants) (Phytophthora [2])
C#CCOc1ccc(CCNC(=O)C(=O)c2ccc(-c3ccc(Cl)cc3)cc2)cc1OC	122 to 124	–	–	–
COc1cc(CCNC(=O)[C@H](NC(=O)OC(C)(C)C)C(C)C)ccc1OCC#Cc1ccc(Cl)cc1 (stereo in doubt)	141 to 142	–	–	–
C#CCOc1ccc(CCNC(=O)C(O)c2ccc(Cl)c(Cl)c2)cc1OC (stereo not drawn) [Compound E1.01, 2-(3,4-Dichloro-phenyl)-2-hydroxy-N-[2-(3-methoxy-4-prop-2-ynyloxy-phenyl)-ethyl]-acetamide]	–	completely inhibit fungal infestation	completely inhibit fungal infestation	completely inhibit fungal infestation
CCC#CCOc1ccc(CCNC(=O)C(O)c2ccc(Cl)c(Cl)c2)cc1OC (stereo not drawn) [Compound E1.02, 2-(3,4-Dichloro-phenyl)-2-hydroxy-N-[2-(3-methoxy-4-pent-2-ynyloxy-phenyl)-ethyl]-acetamide]	–	completely inhibit fungal infestation	completely inhibit fungal infestation	completely inhibit fungal infestation
CCC#CCOc1ccc(CCNC(=O)C(=O)c2ccc(Cl)c(Cl)c2)cc1OC [Compound E2.02, 2-(3,4-Dichloro-phenyl)-N-[2-(3-methoxy-4-pent-2-ynyloxy-phenyl)-ethyl]-2-oxo-acetamide]	94 to 95	completely inhibit fungal infestation	completely inhibit fungal infestation	–
C#CCOc1ccc(CCNC(=O)C(O)c2ccc(-c3ccc(C(F)(F)F)cc3)cc2)cc1OC (stereo not drawn) [Compound E3.03, 2-(4′-Trifluoro-biphenyl-4-yl)-2-hydroxy-N-[2-(3-methoxy-4-prop-2-ynyloxy-phenyl)-ethyl]-acetamide]	–	completely inhibit fungal infestation	completely inhibit fungal infestation	–
C#CCOc1ccc(CCNC(=O)C(OC(=O)C(=O)OC)c2ccc(Br)cc2)cc1OC (stereo not drawn) [Compound E4.01, 2-(4-Bromo-phenyl)-2-methyloxalyloxy-N-[2-(3-methoxy-4-prop-2-ynyloxy-phenyl)-ethyl]-acetamide]	–	completely inhibit fungal infestation	completely inhibit fungal infestation	–
